Results published in ChEMBL document CHEMBL3425434 (J Med Chem, 2015).
The source made the active and inactive calls. No cut-off for these calls is given here.

Columns and labels:
Oryctolagus cuniculus [1] = test: Cmax in NewZealand white rabbit plasma assessed as 4-{[(2'-(Aminomethyl)-5'-{[(3-fluoropyridin-4-yl)amino]-carbonyl}biphenyl-3-yl)carbonyl]amino}benzoic Acid at 0.1 mg/kg, iv after 120 mins by LC-MS/MS analysis; format: ADME, organism-based; set-up: dose 0.1 mg/kg, route intravenous; conditions: in vivo, 2 h
[2] = Cmax in NewZealand white rabbit plasma at 0.1 mg/kg, iv after 30-60 mins by LC-MS/MS analysis; format: ADME, organism-based, Oryctolagus cuniculus; set-up: dose 0.1 mg/kg, route intravenous; conditions: New Zealand white
[3] = biological target: Serine/threonine-protein kinase N2 (Homo sapiens) (UniProt Q16513); test: Inhibition of human full length N-terminal GST-tagged PRK2 expressed in insect cells using glycogen synthase derived peptide as substrate at 10 nM by radiometric assay in presence of [32P]ATP
[4] = Cytotoxicity against human HDF-1 cells assessed as decrease in cell viability after 2 hrs by WST-1 assay; format: cell-based
[5] = Half life in human hepatocytes by LC-PDA-MSA analysis; format: ADME, cell-based, Hepatocyte
[6] = Stability in NewZealand white rabbit hepatocytes assessed as compound remaining after 120 mins by LC-MS/MS analysis; format: ADME, cell-based, Oryctolagus cuniculus, Hepatocyte; conditions: New Zealand white, read-out: Stability
[7] = biological target: Protein kinase C eta type (Homo sapiens) (UniProt P24723); test: Inhibition of human N-terminal GST-tagged PKC eta expressed in baculovirus-infected insect cells using PKCe peptide as substrate at 100 nM by radiometric assay in presence of [32P]ATP and lipid activator
[8] = Apparent permeability across human Caco2 cells; format: ADME, cell-based; conditions: Caco-2
[9] = Half life in NewZealand white rabbit plasma at 0.1 mg/kg, iv by LC-MS/MS analysis; format: ADME, organism-based, Oryctolagus cuniculus; set-up: dose 0.1 mg/kg, route intravenous; conditions: New Zealand white
[10] = biological target: T1, Protein kinase C epsilon type (Homo sapiens) (UniProt Q02156); test: Inhibition of human full length PKC epsilon expressed in insect cells using S25 PKC peptide as substrate at 100 nM by radiometric assay in presence of [32P]ATP
T1 sequence (whole entry): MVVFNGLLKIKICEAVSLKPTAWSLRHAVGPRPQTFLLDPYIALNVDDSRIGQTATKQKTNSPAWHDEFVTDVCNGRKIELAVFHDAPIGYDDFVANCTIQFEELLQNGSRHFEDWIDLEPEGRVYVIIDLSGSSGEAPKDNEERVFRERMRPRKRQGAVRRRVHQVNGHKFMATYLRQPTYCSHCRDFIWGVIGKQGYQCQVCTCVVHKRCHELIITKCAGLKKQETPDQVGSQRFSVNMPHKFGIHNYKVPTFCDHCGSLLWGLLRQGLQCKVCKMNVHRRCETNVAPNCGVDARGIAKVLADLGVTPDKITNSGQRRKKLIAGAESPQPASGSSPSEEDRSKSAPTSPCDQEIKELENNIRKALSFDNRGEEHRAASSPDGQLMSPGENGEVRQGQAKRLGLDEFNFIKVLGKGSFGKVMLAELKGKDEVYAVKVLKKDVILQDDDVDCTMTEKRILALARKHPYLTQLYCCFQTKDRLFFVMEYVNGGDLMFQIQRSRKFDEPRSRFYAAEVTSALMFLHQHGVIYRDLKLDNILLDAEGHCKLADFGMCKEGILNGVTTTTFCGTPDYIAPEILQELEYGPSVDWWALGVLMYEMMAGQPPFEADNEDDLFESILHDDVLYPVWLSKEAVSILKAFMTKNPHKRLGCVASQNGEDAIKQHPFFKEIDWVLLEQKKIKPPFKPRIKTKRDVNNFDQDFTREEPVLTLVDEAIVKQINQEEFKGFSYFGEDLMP

[11] = Half life in human plasma by LC-MS/MS analysis; format: ADME, cell-free
[12] = biological target: T2, Rho-associated protein kinase 2 (Homo sapiens, UniProt O75116); test: Inhibition of human N-terminal GST-tagged ROCK2 expressed in baculovirus-infected insect cells using long S6 kinase peptide as substrate by radiometric assay in presence of [32P]ATP and 200 uM ATP
[13] = biological target: T2, Rho-associated protein kinase 2; test: Inhibition of human N-terminal GST-tagged ROCK2 expressed in baculovirus-infected insect cells using long S6 kinase peptide as substrate by radiometric assay in presence of [32P]ATP
[14] = Half life in NewZealand white rabbit plasma by LC-MS/MS analysis; format: ADME, cell-free, Oryctolagus cuniculus; conditions: New Zealand white
[15] = Lipophilicity, log D of the compound at pH 7.4; format: physicochemical; conditions: buffer
[16] = biological target: Serine/threonine-protein kinase N1 (Homo sapiens) (UniProt Q16512); test: Inhibition of human full length N-terminal GST-tagged PRK1 expressed in insect cells using glycogen synthase derived peptide as substrate at 100 nM by radiometric assay in presence of [32P]ATP
[17] = Cmax in NewZealand white rabbit plasma at 0.1 mg/kg, iv after 1 min by LC-MS/MS analysis; format: ADME, organism-based, Oryctolagus cuniculus; set-up: dose 0.1 mg/kg, route intravenous; conditions: New Zealand white
[18] = Cmax in NewZealand white rabbit plasma at 0.1 mg/kg, iv after 10 mins by LC-MS/MS analysis; format: ADME, organism-based, Oryctolagus cuniculus; set-up: dose 0.1 mg/kg, route intravenous; conditions: New Zealand white
[19] = Inhibition of ROCK-catalysed MLC Thr18/Ser19 phosphorylation in rat A7r5 cells after 90 mins by ELISA; format: cell-based; conditions: A7R5, 1.5 h
[20] = biological target: Ribosomal protein S6 kinase alpha-5 (Homo sapiens) (UniProt O75582); test: Inhibition of human full length N-terminal GST-tagged MSK1 expressed in insect cells using crosstide as substrate at 100 nM by radiometric assay in presence of [32P]ATP
[21] = biological target: Protein kinase C eta type (Homo sapiens) (UniProt P24723); test: Inhibition of human N-terminal GST-tagged PKC eta expressed in baculovirus-infected insect cells using PKCe peptide as substrate at 10 nM by radiometric assay in presence of [32P]ATP and lipid activator
[22] = Induction of apoptosis in human HDF-1 cells assessed as increase in caspase3/7 activity at 60 uM after 24 hrs by caspase Glo-3/7 assay; format: cell-based; conditions: hdf-1, 24 h
Oryctolagus cuniculus [23] = test: Cmax in NewZealand white rabbit plasma assessed as 4-{[(2'-(Aminomethyl)-5'-{[(3-fluoropyridin-4-yl)amino]-carbonyl}biphenyl-3-yl)carbonyl]amino}benzoic Acid at 0.1 mg/kg, iv after 10 mins by LC-MS/MS analysis; format: ADME, organism-based; set-up: dose 0.1 mg/kg, route intravenous; conditions: in vivo
[24] = Stability in human hepatocytes assessed as compound remaining after 120 mins by LC-MS/MS analysis; format: ADME, cell-based, Hepatocyte; conditions: read-out: Stability
[25] = biological target: T3, cAMP-dependent protein kinase catalytic subunit PRKX (Homo sapiens) (UniProt P51817); test: Inhibition of human full length N-terminal GST-tagged PRKX expressed in insect cells using kemptide as substrate at 100 nM by radiometric assay in presence of [32P]ATP
T3 sequence (whole entry): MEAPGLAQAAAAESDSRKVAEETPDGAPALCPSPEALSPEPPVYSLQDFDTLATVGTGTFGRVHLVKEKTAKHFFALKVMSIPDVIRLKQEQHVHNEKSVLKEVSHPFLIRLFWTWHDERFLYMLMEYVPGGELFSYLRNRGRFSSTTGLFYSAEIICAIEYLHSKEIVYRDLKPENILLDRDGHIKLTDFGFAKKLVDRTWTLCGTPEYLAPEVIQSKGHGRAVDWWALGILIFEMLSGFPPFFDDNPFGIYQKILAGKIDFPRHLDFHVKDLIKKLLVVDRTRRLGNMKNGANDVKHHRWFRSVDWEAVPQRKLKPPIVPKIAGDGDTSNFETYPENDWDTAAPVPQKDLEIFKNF

[26] = biological target: Protein kinase C delta type (Homo sapiens) (UniProt Q05655); test: Inhibition of human full length PKC delta expressed in insect cells using PKCe peptide as substrate at 100 nM by radiometric assay in presence of [32P]ATP and lipid activator
[27] = Half life in NewZealand white rabbit hepatocytes by LC-PDA-MSA analysis; format: ADME, cell-based, Oryctolagus cuniculus, Hepatocyte; conditions: New Zealand white
[28] = biological target: Rho-associated protein kinase 1 (Homo sapiens, UniProt Q13464); test: Inhibition of human N-terminal GST-tagged ROCK1 expressed in insect cells using long S6 kinase peptide as substrate by radiometric assay in presence of [32P]ATP
[29] = biological target: Serine/threonine-protein kinase N2 (Homo sapiens) (UniProt Q16513); test: Inhibition of human full length N-terminal GST-tagged PRK2 expressed in insect cells using glycogen synthase derived peptide as substrate at 100 nM by radiometric assay in presence of [32P]ATP
HDF-1 = test: Induction of cell migration in human HDF-1 cells after 8 hrs by wound healing assay; format: functional, cell-based
[30] = Cmax in NewZealand white rabbit plasma at 0.1 mg/kg, iv after 5 mins by LC-MS/MS analysis; format: ADME, organism-based, Oryctolagus cuniculus; set-up: dose 0.1 mg/kg, route intravenous; conditions: New Zealand white
Homo sapiens = species: Homo sapiens; test: Inhibition of human full length C-terminal His6-tagged PKC theta P300L mutant expressed in baculovirus-infected insect cells using histone H1 as substrate at 100 nM by radiometric assay in presence of [32P]ATP and lipid activator
Plasma [31] = test: Stability in human plasma after 120 mins by LC-MS/MS analysis in presence of generic serine protease/serine esterase inhibitor, PMSF; format: ADME, cell-free; conditions: 2 h
Plasma [32] = test: Stability in human plasma by LC-MS/MS analysis in presence of 5 mM PON1 inhibitor, disodium EDTA; format: ADME, cell-free
Plasma [33] = test: Stability in human plasma by LC-MS/MS analysis in presence of carboxylesterase inhibitor BNPP; format: ADME, cell-free
Plasma [34] = test: Stability in human plasma by LC-MS/MS analysis in presence of arylesterase inhibitor DTNB; format: ADME, cell-free
[35] = Stability in human plasma assessed as compound remaining after 60 mins by LC-MS/MS analysis in presence of 5 uM cholinesterase inhibitor tacrine; format: ADME, cell-free; conditions: with tacrine (cholinesterase inhibitor), read-out: Stability
[36] = Stability in human plasma assessed as compound remaining after 60 mins by LC-MS/MS analysis; format: ADME, cell-free; conditions: read-out: Stability
[37] = Induction of apoptosis in human HDF-1 cells assessed as increase in caspase3/7 activity at 40-100 uM after 24 hrs by caspase Glo-3/7 assay; format: cell-based; conditions: hdf-1, 24 h

T2 sequence (O75116 whole entry): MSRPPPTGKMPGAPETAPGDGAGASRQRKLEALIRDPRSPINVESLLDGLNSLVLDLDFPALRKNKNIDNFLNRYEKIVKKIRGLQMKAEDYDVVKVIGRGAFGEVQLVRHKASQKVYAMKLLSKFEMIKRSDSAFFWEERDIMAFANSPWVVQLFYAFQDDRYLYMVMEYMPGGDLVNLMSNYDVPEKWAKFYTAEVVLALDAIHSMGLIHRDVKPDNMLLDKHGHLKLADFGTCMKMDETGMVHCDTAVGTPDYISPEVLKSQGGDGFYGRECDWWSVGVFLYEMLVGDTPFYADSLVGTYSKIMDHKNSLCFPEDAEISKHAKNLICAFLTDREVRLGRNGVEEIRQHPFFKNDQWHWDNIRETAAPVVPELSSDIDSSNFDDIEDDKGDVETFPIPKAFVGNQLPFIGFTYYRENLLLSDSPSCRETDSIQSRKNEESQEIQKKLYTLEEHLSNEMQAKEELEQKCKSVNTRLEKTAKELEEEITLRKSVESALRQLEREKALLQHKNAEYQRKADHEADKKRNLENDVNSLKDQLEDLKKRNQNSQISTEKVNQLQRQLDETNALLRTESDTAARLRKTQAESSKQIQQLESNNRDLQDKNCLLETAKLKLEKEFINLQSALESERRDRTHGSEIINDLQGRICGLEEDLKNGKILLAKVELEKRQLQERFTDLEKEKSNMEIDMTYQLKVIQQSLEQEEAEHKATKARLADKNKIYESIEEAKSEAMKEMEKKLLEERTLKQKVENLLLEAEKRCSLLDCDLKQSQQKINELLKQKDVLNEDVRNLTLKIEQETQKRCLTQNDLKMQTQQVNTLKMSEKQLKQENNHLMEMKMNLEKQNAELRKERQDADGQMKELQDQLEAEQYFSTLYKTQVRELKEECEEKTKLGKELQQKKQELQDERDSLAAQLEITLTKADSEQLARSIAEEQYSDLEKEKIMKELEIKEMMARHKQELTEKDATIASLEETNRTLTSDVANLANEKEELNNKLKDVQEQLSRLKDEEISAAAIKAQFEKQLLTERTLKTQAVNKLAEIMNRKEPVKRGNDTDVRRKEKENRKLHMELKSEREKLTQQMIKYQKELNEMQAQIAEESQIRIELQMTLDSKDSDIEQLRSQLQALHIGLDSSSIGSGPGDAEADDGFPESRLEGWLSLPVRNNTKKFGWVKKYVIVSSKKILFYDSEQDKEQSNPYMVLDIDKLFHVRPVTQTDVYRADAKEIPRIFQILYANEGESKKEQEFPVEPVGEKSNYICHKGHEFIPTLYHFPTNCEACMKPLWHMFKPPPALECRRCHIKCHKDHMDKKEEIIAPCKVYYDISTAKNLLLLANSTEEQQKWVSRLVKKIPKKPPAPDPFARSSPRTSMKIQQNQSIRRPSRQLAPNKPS
Serine/threonine-protein kinase N2 (Homo sapiens), sequence (Q16513 whole entry, looked up): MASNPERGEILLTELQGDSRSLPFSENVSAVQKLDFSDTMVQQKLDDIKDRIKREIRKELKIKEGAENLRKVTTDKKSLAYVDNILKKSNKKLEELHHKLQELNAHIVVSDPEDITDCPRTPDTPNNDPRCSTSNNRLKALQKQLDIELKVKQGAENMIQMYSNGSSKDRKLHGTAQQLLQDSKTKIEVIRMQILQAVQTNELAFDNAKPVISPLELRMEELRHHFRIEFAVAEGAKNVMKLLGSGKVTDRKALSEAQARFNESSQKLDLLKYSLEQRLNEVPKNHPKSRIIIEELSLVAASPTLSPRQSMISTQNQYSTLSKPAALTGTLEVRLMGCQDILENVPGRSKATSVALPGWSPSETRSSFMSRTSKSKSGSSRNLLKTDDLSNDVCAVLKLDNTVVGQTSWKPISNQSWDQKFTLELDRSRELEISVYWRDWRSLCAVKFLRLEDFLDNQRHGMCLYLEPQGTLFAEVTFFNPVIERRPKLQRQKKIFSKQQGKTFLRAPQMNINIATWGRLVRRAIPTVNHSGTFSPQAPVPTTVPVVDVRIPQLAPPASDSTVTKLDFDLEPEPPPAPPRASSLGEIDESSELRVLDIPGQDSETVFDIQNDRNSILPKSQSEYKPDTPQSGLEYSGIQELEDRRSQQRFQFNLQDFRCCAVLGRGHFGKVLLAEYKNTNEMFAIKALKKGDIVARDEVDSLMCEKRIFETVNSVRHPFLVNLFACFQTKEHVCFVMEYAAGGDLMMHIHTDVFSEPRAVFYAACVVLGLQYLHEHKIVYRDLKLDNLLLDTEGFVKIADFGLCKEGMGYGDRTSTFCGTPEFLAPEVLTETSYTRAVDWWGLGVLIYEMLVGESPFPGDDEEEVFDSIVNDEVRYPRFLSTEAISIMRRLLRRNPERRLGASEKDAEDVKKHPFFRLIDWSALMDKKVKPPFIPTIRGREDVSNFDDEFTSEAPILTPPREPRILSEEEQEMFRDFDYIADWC
Protein kinase C eta type (Homo sapiens), sequence (P24723 whole entry): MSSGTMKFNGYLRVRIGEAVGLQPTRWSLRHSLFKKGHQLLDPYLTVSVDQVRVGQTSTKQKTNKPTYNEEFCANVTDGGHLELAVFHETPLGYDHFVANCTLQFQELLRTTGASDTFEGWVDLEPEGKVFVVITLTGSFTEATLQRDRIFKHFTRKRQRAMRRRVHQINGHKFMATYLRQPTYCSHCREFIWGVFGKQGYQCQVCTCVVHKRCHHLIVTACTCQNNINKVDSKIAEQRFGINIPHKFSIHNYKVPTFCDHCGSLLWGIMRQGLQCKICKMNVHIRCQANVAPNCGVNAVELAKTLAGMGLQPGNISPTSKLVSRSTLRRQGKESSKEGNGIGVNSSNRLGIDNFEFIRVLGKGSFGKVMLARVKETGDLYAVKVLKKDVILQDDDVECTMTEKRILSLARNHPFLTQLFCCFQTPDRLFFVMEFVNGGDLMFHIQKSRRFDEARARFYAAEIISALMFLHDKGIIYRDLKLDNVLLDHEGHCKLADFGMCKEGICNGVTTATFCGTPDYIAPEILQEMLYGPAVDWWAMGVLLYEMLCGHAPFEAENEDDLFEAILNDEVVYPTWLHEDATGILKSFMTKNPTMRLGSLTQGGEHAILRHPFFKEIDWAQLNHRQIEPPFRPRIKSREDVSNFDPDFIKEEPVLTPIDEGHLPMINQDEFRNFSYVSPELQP
Protein kinase C delta type (Homo sapiens), sequence (Q05655 whole entry, looked up): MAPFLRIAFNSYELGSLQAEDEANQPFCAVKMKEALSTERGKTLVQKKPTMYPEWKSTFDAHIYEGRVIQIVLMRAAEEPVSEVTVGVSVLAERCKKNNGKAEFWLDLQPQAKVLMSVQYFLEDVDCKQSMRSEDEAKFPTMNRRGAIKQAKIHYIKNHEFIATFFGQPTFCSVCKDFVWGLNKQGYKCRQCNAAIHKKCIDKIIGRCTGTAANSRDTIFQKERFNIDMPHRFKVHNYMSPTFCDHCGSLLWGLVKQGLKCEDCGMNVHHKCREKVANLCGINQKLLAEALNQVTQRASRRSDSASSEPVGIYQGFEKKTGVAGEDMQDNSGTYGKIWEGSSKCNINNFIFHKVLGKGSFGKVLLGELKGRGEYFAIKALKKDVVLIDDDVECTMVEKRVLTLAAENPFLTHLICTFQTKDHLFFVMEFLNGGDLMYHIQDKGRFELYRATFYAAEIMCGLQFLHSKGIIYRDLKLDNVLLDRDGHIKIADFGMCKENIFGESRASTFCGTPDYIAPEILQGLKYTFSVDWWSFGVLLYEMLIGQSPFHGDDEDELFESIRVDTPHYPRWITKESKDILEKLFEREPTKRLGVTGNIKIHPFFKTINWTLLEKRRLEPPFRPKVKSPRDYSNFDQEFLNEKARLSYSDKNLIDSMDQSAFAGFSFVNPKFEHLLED
Serine/threonine-protein kinase N1 (Homo sapiens), sequence (Q16512 2-942 limits assumed): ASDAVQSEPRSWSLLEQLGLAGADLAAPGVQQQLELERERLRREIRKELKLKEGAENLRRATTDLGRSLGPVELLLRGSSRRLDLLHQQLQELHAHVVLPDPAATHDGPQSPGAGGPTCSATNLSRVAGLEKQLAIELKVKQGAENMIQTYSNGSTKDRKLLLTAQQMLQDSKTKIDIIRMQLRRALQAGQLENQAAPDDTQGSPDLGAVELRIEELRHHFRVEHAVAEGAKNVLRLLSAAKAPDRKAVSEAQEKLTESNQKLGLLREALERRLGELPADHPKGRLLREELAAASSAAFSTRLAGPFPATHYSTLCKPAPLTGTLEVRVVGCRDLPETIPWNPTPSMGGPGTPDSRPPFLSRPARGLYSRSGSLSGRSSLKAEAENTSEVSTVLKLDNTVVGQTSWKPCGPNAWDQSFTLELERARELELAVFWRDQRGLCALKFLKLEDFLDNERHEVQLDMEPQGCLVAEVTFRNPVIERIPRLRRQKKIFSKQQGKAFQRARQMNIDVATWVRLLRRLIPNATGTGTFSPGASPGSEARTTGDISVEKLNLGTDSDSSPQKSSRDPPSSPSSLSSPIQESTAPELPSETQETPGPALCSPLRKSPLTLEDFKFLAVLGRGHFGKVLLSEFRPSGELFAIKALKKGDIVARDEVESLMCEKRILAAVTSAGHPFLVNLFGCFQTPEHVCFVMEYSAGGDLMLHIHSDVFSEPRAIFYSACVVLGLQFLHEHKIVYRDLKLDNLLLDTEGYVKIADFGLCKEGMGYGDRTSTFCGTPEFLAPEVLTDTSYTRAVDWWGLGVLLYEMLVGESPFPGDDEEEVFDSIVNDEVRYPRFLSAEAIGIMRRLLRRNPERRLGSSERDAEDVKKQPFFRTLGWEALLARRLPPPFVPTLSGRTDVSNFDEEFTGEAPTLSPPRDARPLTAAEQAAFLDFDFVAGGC

## COC(=O)c1ccc(NC(=O)c2cccc(-c3cc(C(=O)Nc4ccncc4F)ccc3CN)c2)cc1
Oryctolagus cuniculus [1]
  Cmax: > 35 nM
[2]
  Cmax: > 8 nM
[3]
  inhibition: > 50%
[4]
  CC50 at 2 h: 46000 nM
[5]
  half-life: 12 min
[6]
  remaining at 2 h: 0.4%
[7]
  inhibition: Active
[8]
  Papp: 0.8 ×10⁻⁶ cm/s
[9]
  half-life: 22 min
[10]
  inhibition: Active
[11]
  half-life: > 120 min
[12]
  IC50: 4.1 nM
[13]
  IC50: < 1 nM
[14]
  half-life: > 120 min
[15]
  logD: 2.74
[16]
  inhibition: Active
[17]
  Cmax: 803 nM
[18]
  Cmax: 57 nM
[19]
  EC50: 3 nM
[20]
  inhibition: Active
[21]
  inhibition: > 50%
[22]
  Activity: Toxic
Oryctolagus cuniculus [23]
  Cmax: 255 nM
[24]
  remaining at 2 h: 2.4%
[25]
  inhibition: Active
[26]
  inhibition: Active
[27]
  half-life: 12 min
[28]
  IC50: < 1 nM
[29]
  inhibition: Active
HDF-1
  Activity: Dose-dependent effect
[30]
  Cmax: 176 nM
Homo sapiens
  inhibition: Active

## COC(=O)c1ccc(F)c(NC(=O)c2cccc(-c3cc(C(=O)Nc4ccncc4F)ccc3CN)c2)c1
[4]
  CC50 at 2 h: 45000 nM
[11]
  half-life: 18 min
[12]
  IC50: 46 nM
[13]
  IC50: 1.6 nM
Plasma [31]
  Stability: Stable
[19]
  EC50: 26 nM
[22]
  Activity: Toxic
Plasma [32]
  Stability: Unstable
Plasma [33]
  Stability: Unstable
Plasma [34]
  Stability: Unstable
[35]
  remaining at 1 h: 98%
[36]
  remaining at 1 h: 13%
HDF-1
  Activity: Dose-dependent effect

## NCc1ccc(C(=O)Nc2ccncc2F)cc1-c1cccc(C(=O)Nc2ccc(CC(=O)OC3CCCC3)cc2)c1
[4]
  CC50 at 2 h: 29000 nM
[11]
  half-life: 7 min
[12]
  IC50: 1.3 nM
[13]
  IC50: < 1 nM
[19]
  EC50: 26 nM
[37]
  Activity: Toxic
[35]
  remaining at 1 h: 100%
[36]
  remaining at 1 h: 2%
HDF-1
  Activity: Dose-dependent effect
